From US8110681B2, “Compounds for the treatment of spinal muscular atrophy and other uses” (The United States of America as represented by the …, priority 2006, dated 2012)
Where two headings read alike, the source gives them in different places.

Test system: SMN2-linked luciferase-reporter gene construct
Test: SMN splice reporter assay (SMN2-linked luciferase reporter, Example 10)
Assay type: cell-based
Source text: Cervical carcinoma cell lines were transformed with a SMN2-linked luciferase-reporter gene construct. The reporter is designed to detect shifts in the alternative splicing of SMN2 sequences. In particular, the reporter is constructed as a fusion of the alternatively spliced sequences of the SMN2 gene and the luciferase gene. Luciferase sequences are in the correct translational reading frame only when the SMN2 sequences are spliced according to the normal SMN1 mechanism (e.g., splicing to include exon 7), which allows for translation of the stable SMN protein. Compounds were tested in the assay by administering the compound to the cell line and detecting an increase in the luciferase activity. The assay is described in greater detail in Zhang et al., Gene Ther., 8, 1532-8 (2001). Compounds were administered as described in Lunn et al, Chem. & Biol, 11, 1489-1493 (2004).
The results are reported as a fold-increase over a baseline reading of transformed cells without any test compound.

[1] = SMN2-linked luciferase reporter, average
[2] = maximum fold increase of reporter signal, average, read-out: SMN Splice Reporter Assay (Example 10) Avg MaxFold Increase
[3] = SMN2-linked luciferase reporter, average maximum fold increase, read-out: SMN Splice Reporter Assay (Example 10) Avg MaxFold Increase

EC50 [1] | SMILES | maximal fold induction [2] | maximal fold induction [3] | maximal fold induction (read-out: SMN Splice Reporter Assay (Example 10) Avg MaxFold Increase, maximum fold increase of reporter signal, average, heading: SMN Splice Reporter Assay Avg MaxFold Increase)
58 nM | CC(C(=O)O)c1ccc(N2Cc3ccc(N4CCCC4)cc3C2=O)cc1 (centres unmarked) [ALB-114739a] | 1.55 | – | –
115 nM | CC(C(=O)O)c1ccc(N2Cc3ccc(OCC4CC4)cc3C2=O)cc1 (centres unmarked) [ALB-115500] | 1.54 | – | –
184 nM | CC(C)(C)c1ccc(N2Cc3ccc(Br)cc3C2=O)cc1 [ALB-115583] | 1.37 | – | –
97 nM | CCc1ccc(N2Cc3ccccc3C2=O)cc1 [ALB-114940] | 1.36 | – | –
568 nM | CC(C(=O)NS(=O)(=O)C(C)C)c1ccc(N2Cc3ccccc3C2=O)cc1 (centres unmarked) [ALB-111856] | 1.14 | – | –
12400 nM | CC(C)(C)OC(=O)C1(c2ccc(N3Cc4ccccc4C3=O)cc2)CC1 [ALB-112365] | 1.5 | – | –
1380 nM | CCOc1cccc2c1C(=O)N(c1ccc(C(C)C)cc1)C2 [ALB-118278] | 1.5 | – | –
298 nM | CCc1ccc2c(c1)C(=O)N(c1ccc(C(C)COC)cc1)C2 (centres unmarked) [ALB-115328] | 1.5 | – | –
181 nM | COc1ccc2c(c1)C(=O)N(c1ccc(C(C)CO)cc1)C2 (centres unmarked) [ALB-114606] | 1.31 | – | –
6980 nM | CC(C(=O)O)c1ccc(N2Cc3cc(C#N)ccc3C2=O)cc1 (centres unmarked) [ALB-112477] | 1.18 | – | –
280 nM | C[C@@H](C(=O)O)c1ccc(N2Cc3ccccc3C2=O)cc1 [ALB-112941] | 1.48 | – | –
822 nM | CC(CF)c1ccc(N2Cc3ccc(C4CCCC4)cc3C2=O)cc1 (centres unmarked) [ALB-114740] | 1.22 | – | –
5900 nM | Cc1cccc2c1CN(c1ccc(C(C)C(=O)O)cc1)C2=O (centres unmarked) [ALB-112555] | 1.64 | – | –
718 nM | CC(C(=O)OC(C)(C)C)c1ccc(N2Cc3ccc(OC(F)F)cc3C2=O)cc1 (centres unmarked) [ALB-119336] | – | 1.21 | –
114 nM | CC(C(=O)OC(C)(C)C)c1ccc(N2Cc3ccc(-c4ccc(Cl)c(Cl)c4)cc3C2=O)cc1 (centres unmarked) [ALB-112475] | 1.05 | – | –
175 nM | CC(C(=O)OC(C)(C)C)c1ccc(N2Cc3ccc(NS(C)(=O)=O)cc3C2=O)cc1 (centres unmarked) [ALB-111997] | – | – | 1.01
220 nM | CC(C)c1ccc(N2Cc3cccc(OC(F)F)c3C2=O)cc1 [ALB-118279] | – | 1.55 | –
27 nM | CC(C)c1ccc(N2Cc3cc(O)ccc3C2=O)cc1 [ALB-118277] | – | 1.15 | –
5720 nM | COC(=O)C(C)c1ccc(N2Cc3ccccc3C2)cc1 (centres unmarked) [ALB-112192] | 1.41 | – | –
16000 nM | CC(C(=O)O)c1ccc(N2Cc3c(cccc3-c3cncnc3)C2=O)cc1 (centres unmarked) [ALB-112353] | 1.53 | – | –
2320 nM | CC(C(=O)O)c1ccc(N2Cc3ccc(/C=C/C(F)(F)F)cc3C2=O)cc1 (centres unmarked) [ALB-115501] | 1.39 | – | –
16900 nM | CC(C(=O)O)c1ccc(N2Cc3cccc(-c4ccc(Cl)cc4)c3C2=O)cc1 (centres unmarked) [ALB-112175] | 1.37 | – | –
669 nM | CC(C(=O)O)c1ccc(N2Cc3cc4ccsc4cc3C2=O)cc1 (centres unmarked) [ALB-112228] | 1.27 | – | –
55 nM | CC(C)c1ccc2c(c1)C(=O)N(c1ccc(C(C)C(=O)O)cc1)C2 (centres unmarked) [ALB-113563] | 1.8 | – | –
144 nM | CC(CO)c1ccc(N2Cc3ccccc3C2=O)cc1 (centres unmarked) [ALB-113309] | 1.19 | – | –
2670 nM | COc1ccc2c(c1OC)C(=O)N(c1ccc(C(C)C)cc1)C2 [ALB-118036] | 1.29 | – | –
20500 nM | CC(C(=O)O)c1ccc(N2Cc3cccc(-c4cccnc4)c3C2=O)cc1 (centres unmarked) [ALB-112157] | 1.2 | – | –
68 nM | O=C1c2cc(Br)ccc2CN1c1ccc(C2CCCC2)cc1 [ALB-116072] | – | 1.36 | –
9710 nM | CC(C(=O)O)c1ccc(N2Cc3cccc(Br)c3C2=O)cc1 (centres unmarked) [ALB-112067] | 1.36 | – | –
401 nM | CC(C#N)c1ccc(N2Cc3cc4c(cc3C2=O)OCCO4)cc1 (centres unmarked) [ALB-117571] | – | 1.3 | –

Further lines, the molecule ahead of its results:

SMILES | EC50 [1] | maximal fold induction [2] | maximal fold induction [3] | maximal fold induction (read-out: SMN Splice Reporter Assay (Example 10) Avg MaxFold Increase, maximum fold increase of reporter signal, average, heading: SMN Splice Reporter Assay Avg MaxFold Increase)
CC(C(=O)NC#N)c1ccc(N2Cc3ccccc3C2=O)cc1 (centres unmarked) [ALB-111746] | – | 1.11 | – | –
CC(C(=O)OC(C)(C)C)c1ccc(N2Cc3c(cccc3-c3ccc(Cl)c(Cl)c3)C2=O)cc1 (centres unmarked) [ALB-112186] | – | 1.08 | – | –
Cc1ccc(N2Cc3ccccc3C2=O)cc1C [ALB-115711] | 274 nM | 1.33 | – | –
CC(C(=O)O)c1ccc(N2Cc3ccccc3C2=O)cc1-c1cncnc1 (centres unmarked) [ALB-112232] | – | 1.05 | – | –
CC(C(=O)O)c1ccc(N2Cc3cc(OCC(F)(F)F)ccc3C2=O)cc1 (centres unmarked) [ALB-113964] | – | 1.08 | – | –
CC(C)Oc1ccc2c(c1)C(=O)N(c1ccc(C(C)C(=O)O)cc1)C2 (centres unmarked) [ALB-113492] | 24 nM | 1.67 | – | –
CC(C(=O)O)c1ccc(N2Cc3cc(Br)ccc3C2=O)cc1 (centres unmarked) [ALB-111855] | 553 nM | 1.35 | – | –
COCC(C)c1ccc(N2Cc3ccc(C4CCCC4)cc3C2=O)cc1 (centres unmarked) [ALB-114845] | – | 1.15 | – | –
COCc1ccc2c(c1)C(=O)N(c1ccc(C(C)CO)cc1)C2 (centres unmarked) [ALB-114941] | 299 nM | 1.35 | – | –
CC(C(=O)OC(C)(C)C)c1ccc(N2Cc3ccccc3C2=O)c(C#N)c1 (centres unmarked) [ALB-112436] | – | 1.07 | – | –
CC(C(=O)OC(C)(C)C)c1ccc(N2Cc3ccc(NC(=O)c4ccccc4)cc3C2=O)cc1 (centres unmarked) [ALB-111958] | – | 1.06 | – | –
COc1ccc(-c2cccc3c2CN(c2ccc(C(C)C(=O)O)cc2)C3=O)cc1 (centres unmarked) [ALB-112222] | – | 1.42 | – | –
CC(C(=O)OC(C)(C)C)c1ccc(N2Cc3ccc(Nc4ccccc4)cc3C2=O)cc1 (centres unmarked) [ALB-112168] | – | 1.15 | – | –
CC(C(=O)OC(C)(C)C)c1ccc(N2Cc3cccc(-c4cccs4)c3C2=O)cc1 (centres unmarked) [ALB-112154] | – | 1.11 | – | –
CCCc1ccc(N2Cc3ccc(Br)cc3C2=O)cc1 [ALB-115589] | 143 nM | 1.39 | – | –
CC(C(=O)O)c1ccc(N2Cc3ccccc3C2=O)c(-c2ccccc2)c1 (centres unmarked) [ALB-112165] | – | 1.15 | – | –
Cc1cc(N2Cc3ccccc3C2=O)ccc1C(C)C(=O)O (centres unmarked) [ALB-112485] | – | 1.3 | – | –
CC(C(=O)O)c1ccc(N2Cc3ccc(CN(C)C)cc3C2=O)cc1 (centres unmarked) [ALB-114608] | – | 1.23 | – | –
CC(C(=O)OC(C)(C)C)c1ccc(N2Cc3c(cccc3-c3cccs3)C2=O)cc1 (centres unmarked) [ALB-112191] | – | 1.12 | – | –
CC(C(=O)OC(C)(C)C)c1ccc(N2Cc3ccccc3C2=O)cc1-c1ccccc1 (centres unmarked) [ALB-112197] | – | 1.07 | – | –
CCCCc1ccc2c(c1)CN(c1ccc(C(C)C(=O)O)cc1)C2=O (centres unmarked) [ALB-113835] | – | 1.15 | – | –

SMILES | EC50 [1] | maximal fold induction [2] | maximal fold induction [3] | maximal fold induction (read-out: SMN Splice Reporter Assay (Example 10) Avg MaxFold Increase, maximum fold increase of reporter signal, average, heading: SMN Splice Reporter Assay Avg MaxFold Increase)
COCC(C)c1ccc(N2Cc3ccc(COC(C)C)cc3C2=O)cc1 (centres unmarked) [ALB-114847] | – | 1.23 | – | –
Cc1ccc(-c2ccc3c(c2)C(=O)N(c2ccc(C(C)C(=O)O)cc2)C3)cc1 (centres unmarked) [ALB-112447] | 2020 nM | 1.27 | – | –
CC(C(=O)O)c1ccc(N2Cc3ccccc3C2=O)cc1C#N (centres unmarked) [ALB-112437] | – | 1.09 | – | –
CCCC(C)(C(=O)O)c1ccc(N2Cc3ccccc3C2=O)cc1 (centres unmarked) [ALB-111857] | – | 1.07 | – | –
CCOc1ccc2c(c1)CN(c1ccc(C(C)C)cc1)C2=O [ALB-118276] | – | 1.05 | – | –
CC(C(=O)O)c1ccc(N2Cc3c(N)cccc3C2=O)cc1 (centres unmarked) [ALB-111996a] | – | 1.11 | – | –
COc1ccc(-c2ccc3c(c2)C(=O)N(c2ccc(C(C)C)cc2)C3)cc1 [ALB-118038] | – | 1.08 | – | –
CCOCC(C)c1ccc(N2Cc3ccccc3C2=O)cc1 (centres unmarked) [ALB-114744] | – | 1.18 | – | –
COc1cccc2c1CN(c1ccc(C(C)C(=O)O)cc1)C2=O (centres unmarked) [ALB-111895] | – | 1.15 | – | –
CC(C(=O)OC(C)(C)C)c1ccc(N2Cc3cc(Cl)ccc3C2=O)cc1 (centres unmarked) [ALB-111761] | 5560 nM | 1.19 | – | –
CCc1ccc(N2Cc3ccc(OC)cc3C2=O)cc1 [ALB-115085] | 58 nM | 1.47 | – | –
CC(C(=O)O)c1ccc(N2Cc3ccc(NC(=O)c4ccc(Cl)cc4)cc3C2=O)cc1 (centres unmarked) [ALB-111983] | – | 1.06 | – | –
Cc1ccc(-c2ccc3c(c2)C(=O)N(c2ccc(C(C)C(=O)OC(C)(C)C)cc2)C3)cc1 (centres unmarked) [ALB-112442] | – | 1.11 | – | –
CC(C(=O)OC(C)(C)C)c1cccc(N2Cc3ccccc3C2=O)c1 (centres unmarked) [ALB-112361] | – | 1.09 | – | –
CC(C(=O)OC(C)(C)C)c1ccc(N2Cc3cc(-c4cncnc4)ccc3C2=O)cc1 (centres unmarked) [ALB-111991] | – | 1.09 | – | –
O=C1c2cc3c(cc2CN1c1ccc(C2CCCCC2)cc1)OCCO3 [ALB-116417] | – | – | 1.11 | –
CC(C(=O)O)c1ccc(N2Cc3ccc(-c4cncnc4)cc3C2=O)cc1 (centres unmarked) [ALB-112517] | – | 1.25 | – | –
CC(C(=O)OC(C)(C)C)c1ccc(N2Cc3ccccc3C2=O)c(-c2cccs2)c1 (centres unmarked) [ALB-112196] | – | 1.09 | – | –
CC(C(=O)O)c1ccc(N2Cc3ccc(NC(=O)c4ccccc4)cc3C2=O)cc1 (centres unmarked) [ALB-111986] | – | 1.06 | – | –
CCC(C(=O)OC(C)(C)C)c1ccc(N2Cc3ccccc3C2=O)cc1 (centres unmarked) [ALB-112364] | 3260 nM | 1.21 | – | –
